# Results taken from patent publication US6683027B2, “Herbicidal mixtures” (BASF Aktienegesellschaft, priority 2000, dated 2004).
# Assays:
# Stellaria media = experiment: greenhouse post-emergence trial, percent damage vs untreated control 21 days after treatment; type: in vivo; details: STEME
# Procedure: The trials are carried out under greenhouse conditions in pre- and post-emergence applications. The plant seeds are sown in pots containing a loamy sand soil (0.5 l). The herbicides are applied as single treatments, or in a combination comprising a compound of formula I and compound selected from group (2) as defined above, before or after emergence of weeds and crop. The herbicidal performance is assessed as percent damage in comparison to the untreated control plants. The assessment is done 21 days after the treatment. Wheat and barley are treated at the 3-4 leaf stage, the broad-leaf weeds at the 2-4 leaf stage and annual grasses at the 2-3 leaf stage.
# Matricaria inodora = experiment: greenhouse pre-emergence trial, percent damage vs untreated control 21 days after treatment; type: in vivo; details: 3.75 g/ha, MATIN, Example 2
smiles,measurement,setting,value
"FC(F)(F)c1ccc(-c2nccc(Oc3cccc(C(F)(F)F)c3)n2)cc1 [Compound A, 4-(3-trifluoromethylphenoxy)-2-(4-trifluoromethylphenyl)-pyrimidine]",Compound A alone (% control),"Stellaria media; 3.75 g/ha, Example 1B",10%
same,Compound A alone (% control),"Stellaria media; 3.75 g/ha, Example 4",28%
same,Compound A alone (% control),"Stellaria media; 7.5 g/ha, Example 1B",18%
same,Compound A alone (% control),"Stellaria media; 7.5 g/ha, Example 13",30%
same,Compound A alone (% control),"Stellaria media; 15 g/ha, Example 1B",45%
same,Compound A alone (% control),"Stellaria media; 15 g/ha, Example 9",70%
same,Compound A alone (% control),"Stellaria media; 30 g/ha, Example 1B",70%
same,Compound A alone (% control),Matricaria inodora,50%
